Legend:
[1] = tested on: colitis models; assay: Colitis models (dextran sulfate sodium); format: in vivo, C57BL/6J mice; conditions: intraperitoneally twice a day after 8 days from supply of DSS; disease-induced models lost to 17.5 to 18 g
Description: 3.0% dextran sulfate sodium (DSS: MP biomedicals) was dissolved in deionized water and supplied to 9-week-old C57BL/6J mice for 5 to 7 days and then water was normally supplied to the mice to induce colitis in animal models. The experimental animals were classified into a solvent control group and each group treated with Compound 254 and Compound 255 as test materials based on the body weight of the experimental animals. The test material was intraperitoneally injected twice a day after 8 days from the supply of DSS. The evaluation of the efficacy in colitis models was made by determining the degree to which the weight, lost due to the disease, was recovered to normal level, and the results are shown in FIG. 6.

[2] = molecular target: T1, HDAC 6 (Homo sapiens, UniProt Q9UBN7); assay: HDAC panel by Reaction Biology Corp., HDAC 6; format: biochemical; design: Reaction Biology Corp; conditions: for IC50: Table 15, Reaction Biology Corp., read-out: HDAC6 inhibitory activity; for Selectivity (HDAC6/1): ratio of the HDAC 1 and HDAC 6 values of Table 15; for selectivity for HDAC6 over HDAC1: text on Table 15
T1 sequence (Q9UBN7 1-1215): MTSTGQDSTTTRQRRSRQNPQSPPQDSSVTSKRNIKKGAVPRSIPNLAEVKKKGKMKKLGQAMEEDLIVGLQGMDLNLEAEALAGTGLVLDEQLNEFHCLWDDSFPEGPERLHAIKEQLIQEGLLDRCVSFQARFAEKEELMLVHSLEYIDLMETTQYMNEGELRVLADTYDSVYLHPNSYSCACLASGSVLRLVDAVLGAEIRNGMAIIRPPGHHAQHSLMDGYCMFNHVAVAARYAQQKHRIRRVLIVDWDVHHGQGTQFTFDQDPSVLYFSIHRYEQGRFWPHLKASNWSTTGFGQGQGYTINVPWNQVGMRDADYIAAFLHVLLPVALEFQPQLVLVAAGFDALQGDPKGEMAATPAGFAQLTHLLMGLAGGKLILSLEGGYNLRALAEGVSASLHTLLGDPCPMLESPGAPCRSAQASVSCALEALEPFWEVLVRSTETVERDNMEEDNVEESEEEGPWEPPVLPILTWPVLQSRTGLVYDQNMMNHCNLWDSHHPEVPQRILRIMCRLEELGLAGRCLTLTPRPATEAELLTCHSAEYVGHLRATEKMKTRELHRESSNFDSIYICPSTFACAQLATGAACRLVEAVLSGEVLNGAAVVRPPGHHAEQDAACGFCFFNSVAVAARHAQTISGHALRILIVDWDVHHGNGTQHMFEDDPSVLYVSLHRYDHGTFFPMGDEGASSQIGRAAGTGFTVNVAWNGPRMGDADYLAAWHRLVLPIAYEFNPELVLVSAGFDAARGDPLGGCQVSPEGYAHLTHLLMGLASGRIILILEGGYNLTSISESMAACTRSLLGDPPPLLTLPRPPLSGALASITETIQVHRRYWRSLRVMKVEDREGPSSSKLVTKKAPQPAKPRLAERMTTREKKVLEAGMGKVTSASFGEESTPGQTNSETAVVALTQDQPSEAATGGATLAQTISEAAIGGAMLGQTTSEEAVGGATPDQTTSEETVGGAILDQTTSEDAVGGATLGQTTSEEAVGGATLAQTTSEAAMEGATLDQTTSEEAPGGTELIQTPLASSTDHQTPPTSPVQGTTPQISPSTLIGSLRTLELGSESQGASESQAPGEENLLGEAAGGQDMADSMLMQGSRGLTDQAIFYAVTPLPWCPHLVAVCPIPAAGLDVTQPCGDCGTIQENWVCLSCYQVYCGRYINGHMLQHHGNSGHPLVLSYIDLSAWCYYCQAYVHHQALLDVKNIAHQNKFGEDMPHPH
Text: (§1) The inhibitory activities of Compounds 255 and 374 on all HDACs were confirmed (by Reaction Biology Corp.).

[3] = molecular target: T2, HDAC 5 (Homo sapiens, UniProt Q9UQL6); assay: HDAC panel by Reaction Biology Corp., HDAC 5; format: biochemical; conditions: read-out: HDAC inhibitory activities, HDAC 5
T2 construct: Reaction Biology Corp
T2 sequence (Q9UQL6 whole entry): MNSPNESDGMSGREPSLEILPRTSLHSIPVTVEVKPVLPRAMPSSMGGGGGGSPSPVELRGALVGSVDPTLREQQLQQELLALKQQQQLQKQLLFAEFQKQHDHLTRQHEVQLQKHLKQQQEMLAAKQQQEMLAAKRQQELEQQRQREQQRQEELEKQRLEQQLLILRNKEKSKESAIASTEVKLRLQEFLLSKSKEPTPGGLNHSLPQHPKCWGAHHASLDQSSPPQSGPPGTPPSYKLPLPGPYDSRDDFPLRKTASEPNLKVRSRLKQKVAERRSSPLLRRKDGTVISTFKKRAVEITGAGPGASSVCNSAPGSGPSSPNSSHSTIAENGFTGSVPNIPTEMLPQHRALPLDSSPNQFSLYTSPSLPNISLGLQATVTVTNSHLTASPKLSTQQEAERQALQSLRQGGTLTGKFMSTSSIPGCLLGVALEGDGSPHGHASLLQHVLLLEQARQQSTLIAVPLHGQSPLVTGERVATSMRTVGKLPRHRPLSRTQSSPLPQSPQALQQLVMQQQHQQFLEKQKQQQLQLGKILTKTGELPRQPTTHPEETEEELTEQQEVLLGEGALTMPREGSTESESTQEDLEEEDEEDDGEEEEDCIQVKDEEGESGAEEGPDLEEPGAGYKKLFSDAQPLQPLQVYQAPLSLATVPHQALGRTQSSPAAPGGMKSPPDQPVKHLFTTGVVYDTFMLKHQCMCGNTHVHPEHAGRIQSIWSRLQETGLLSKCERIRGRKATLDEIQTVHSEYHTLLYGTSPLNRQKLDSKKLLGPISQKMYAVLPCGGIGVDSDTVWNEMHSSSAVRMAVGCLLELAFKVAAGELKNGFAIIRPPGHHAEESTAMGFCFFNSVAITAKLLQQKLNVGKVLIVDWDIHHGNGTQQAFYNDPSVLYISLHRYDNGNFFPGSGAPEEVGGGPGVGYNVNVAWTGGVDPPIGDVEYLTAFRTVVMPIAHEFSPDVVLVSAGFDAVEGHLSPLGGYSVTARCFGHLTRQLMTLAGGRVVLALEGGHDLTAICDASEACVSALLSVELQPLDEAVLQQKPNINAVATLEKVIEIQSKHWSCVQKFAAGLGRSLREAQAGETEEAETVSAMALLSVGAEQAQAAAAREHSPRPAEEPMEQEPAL
Text: as §1

[4] = tested on: RPMI 8226 cells; assay: Combination index for combination treatment with Velcade (MTT cell viability); format: cell-based
Description: RPMI 8226 cells were seeded in 96-well U-bottom plate at 3×10^5 cells/ml in 180 μl per well, and 20 μl of test material was added to the plate. The cells were incubated in a 37° C. humidified 5% CO2 incubator for 48 hours, and each 20 μl of 5 mg/ml 2-(4,5-dimethylthiazol-2-yl)-2,5-diphenyltetrazolium bromide (MTT) solution dissolved in PBS was added and incubated again for 4 hours. After the formation of formazan, the medium was completely removed, 200 μl of DMSO was added, and then the absorbance was measured using a microplate reader at 570 nm.
For the quantitative analysis of drug interaction between the novel urea compounds of the present invention and Velcade (BOZ) well known as a therapeutic agent for multiple myeloma, the combination index (CI) of cell fractions on cytotoxicity caused by the drugs was calculated based on the dose-response curve of single and combination treatments. For the analysis of the interaction between two drugs, the CI was measured using Compusyn software (Combosyn Inc.) according to the method of Chou and Talalay (CompuSyn by Ting-Chao Chou and Nick Martin, 2005). The CI is the dose ratio of two anticancer agents treated with the dose of two anticancers at the point representing the equivalent cytotoxic effects. CI<1, CI=1, and CI>1 are interpreted as synergism, additivity, and antagonism, respectively.

[5] = Compound 255 0.25 μM + BOZ (Velcade) 2.5 nM
[6] = Compound 255 0.25 μM + BOZ (Velcade) 5.0 nM
[7] = Compound 255 0.25 μM + BOZ (Velcade) 10.0 nM
[8] = Compound 255 0.5 μM + BOZ (Velcade) 2.5 nM
[9] = Compound 255 0.5 μM + BOZ (Velcade) 5.0 nM
[10] = Compound 255 0.5 μM + BOZ (Velcade) 10.0 nM
[11] = Compound 255 1.0 μM + BOZ (Velcade) 2.5 nM
[12] = Compound 255 1.0 μM + BOZ (Velcade) 5.0 nM
[13] = Compound 255 1.0 μM + BOZ (Velcade) 10.0 nM

O=C(NO)c1ccc(CN(C(=O)N2CCOCC2)c2cccc(Br)c2)cc1 [Compound 255, N-(3-bromophenyl)-N-(4-(hydroxycarbamoyl)benzyl)morpholine-4-carboxamide]
weight recovered to [1]: 19 to 19.5 g
IC50 [2]: 1 nM
Selectivity (HDAC6/1) [2]: 160
selectivity for HDAC6 over HDAC1 [2]: 160 times
IC50 [3]: 8270 nM
CI (1) [4, 5]: 1.182
CI (2) [4, 5]: 1.034
CI (3) [4, 5]: 1.068
CI (1) [4, 6]: 0.560
CI (2) [4, 6]: 0.710
CI (3) [4, 6]: 0.737
CI (1) [4, 7]: 0.482
CI (2) [4, 7]: 0.309
CI (3) [4, 7]: 0.417
CI (1) [4, 8]: 1.120
CI (2) [4, 8]: 1.115
CI (3) [4, 8]: 1.087
CI (1) [4, 9]: 0.751
CI (2) [4, 9]: 0.789
CI (3) [4, 9]: 0.727
CI (1) [4, 10]: 0.491
CI (2) [4, 10]: 0.529
CI (3) [4, 10]: 0.428
CI (1) [4, 11]: 0.940
CI (2) [4, 11]: 1.146
CI (3) [4, 11]: 0.998
CI (1) [4, 12]: 0.469
CI (2) [4, 12]: 0.679
CI (3) [4, 12]: 0.475
CI (1) [4, 13]: 0.416
CI (2) [4, 13]: 0.518
CI (3) [4, 13]: 0.417
combination effect with Velcade (BOZ) ([4]; judged by the combination index): combination effect is excellent

O=C(NO)c1ccc(CN(C(=O)N2CCOCC2)c2cccc(C(F)(F)F)c2)cc1 [Compound 374, N-(4-(hydroxycarbamoyl)benzyl)-N-(3-(trifluoromethyl)phenyl)morpholine-4-carboxamide]
IC50 [2]: 5 nM
Selectivity (HDAC6/1) [2]: 424
selectivity for HDAC6 over HDAC1 [2]: 424 times
